Experiments:
[1] = molecular target: T1, human SCD1 (Homo sapiens, UniProt O00767); assay: Growth of humanized yeast expressing human SCD1 as sole desaturase; assay type: cell-based, humanized yeastized yeastized yeastized yeast; settings: yeast growth
T1 construct: host or cells: S. cerevisiae ole1Δ strain (W303 pdr1Δ pdr3Δ background), pRS316 plasmid, TDH3 promoter
T1 sequence (O00767 1-359): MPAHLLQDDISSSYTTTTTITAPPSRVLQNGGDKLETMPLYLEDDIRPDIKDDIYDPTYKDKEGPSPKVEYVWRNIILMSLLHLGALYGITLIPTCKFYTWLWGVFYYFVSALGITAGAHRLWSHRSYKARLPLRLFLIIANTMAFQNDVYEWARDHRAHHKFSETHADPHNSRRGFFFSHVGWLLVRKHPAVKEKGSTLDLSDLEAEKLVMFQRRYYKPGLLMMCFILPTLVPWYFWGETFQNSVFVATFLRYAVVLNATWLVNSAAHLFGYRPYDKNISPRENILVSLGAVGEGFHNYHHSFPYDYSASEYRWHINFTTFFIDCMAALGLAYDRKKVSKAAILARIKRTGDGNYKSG
Experimental: The coding sequence of yeast OLE1 was also cloned into this plasmid). These clones were then transformed into the ole1Δ strain and plated on CSM-Ura media (CSM lacking uracil) with 2% glucose (w/v) and independent colonies were isolated and amplified.
All compound profiling experiments were performed using the same basic protocol. Different genetic backgrounds (e.g., gene deletions) or conditions (e.g., addition of oleic and palmitoleic acid) were replaced as indicated below.
Compound administration was performed in two separate steps. First, 15 μL of CSM-Galactose (induces expression of toxic protein) was dispensed into clear 384 well assay plates using a MULTIDROP™ Combi reagent dispenser. […] The cultures described above were then diluted to a 2× concentration (0.03 and 0.08 for alpha-synuclein and ApoE, final OD600 of 0.015 and 0.04) in CSM-Galactose. For wild-type and Ole1/SCD1/SCD5 plasmid-containing strains, the 2× cell density was 0.02.
For experiments using a plasmid-borne copy of Ole1, SCD1, or SCD5 (FIGS. 4B, 7, and 8), media lacking uracil (SX-Ura, where X is glucose, raffinose, or galactose), was used for all steps of the compound profiling protocol to ensure its maintenance throughout the assay.
After yeast delivery, assay plates were incubated under humidified conditions at 30° C. for 24 to 40 h. ApoE4 rescue experiments were stopped at 24 h, aSyn experiments at 40 h, Ole1 at 24 h, and SCD1/SCD5 at 40 h. The growth of yeast was monitored by reading the OD600 of each well using a microplate reader (Perkin Elmer EnVision™).

[2] = system: rat cortical neurons transfected with alpha-synuclein A53T; assay: Neurite degeneration assay; assay type: cell-based
Experimental: Rat primary cortical neurons cultured in 96-well plates (Greiner Bio-One) were co-transfected with a fluorescence reporter plasmid (encoding mKate2) and empty or alpha-synuclein-A53T overexpression plasmids by lipofection at 5-6 div (days in vitro). LIPOFECTAMINE® 2000 transfection reagent (Thermo Fisher) (0.5 μl/well) was diluted in NEUROBASAL® media (Thermo Fisher) and incubated for 5-10 min. The LIPOFECTAMINE®/NEUROBASAL® mixture was then added dropwise to a plasmid cocktail diluted in NEUROBASAL® media, and incubated for approximately 40 min. During this time, conditioned media on the neurons was replaced with media containing 1× kynurenic Acid (Sigma-Aldrich) in NEUROBASAL® media (NBKY). LIPOFECTAMINE®/DNA complex solutions were subsequently added dropwise to neurons in the NBKY media in the 96-well plate. Lipofection was carried out for 30-40 min in a standard cell culture incubator (37° C., 5% CO2). Neurons were then washed with NEUROBASAL® media, and 50% conditioned/50% fresh NEUROBASAL® media containing B-27 supplement and GlutaMax™ (Thermo Fisher) (NBM) was applied to the cultures.
Transfected rat cortical neuron cultures were treated with DMSO or CAY10566 compound 4-6 h post-transfection. […] Neurite lengths of transfected neurons were tracked by an RFP reporter, mKate2, and measured by NeuroTrack™ Software Module (Essen Bioscience). […]

[3] = system: alpha-synuclein transfected U2OS cells; assay: U2OS ATP assay (alpha-synuclein toxicity); assay type: cell-based, human; settings: 72 h, titration
Experimental: U2OS cells were trypsinized using 0.25% trypsin-EDTA (Thermo Fisher) for 5 min at 37° C. followed by centrifugation at 800 rpm for 5 min at room temperature. Cell pellets were re-suspended in SE solution (Lonza Biologics, Inc.) at a density of […]. Alpha-synuclein wild-type or empty control (pcDNA) plasmids were transfected at a ratio of […] per 1,000,000 cells. For genetic modifier studies, mRab1a was titrated at various concentrations in the presence of SNCA plasmids. Nucleofection was performed using 4D-NUCLEOFECTOR™ System (Lonza Biosciences, Inc.) under program code CM130 in either 20 μL Nucleocuvette™ strips or 100 μl single Nucleocuvettes™. Cells recovered at room temperature for 10-15 minutes after nucleofection before further handling. Pre-warmed medium was added and cells were thoroughly but gently mixed to a homogenous suspension before plating. Cells were seeded at 2×10^4 cells/100 μl/well into 96 well PLD-coated white plates (Corning, Inc.) using a customized semi-automated pipetting program (VIAFLO 384/96, Integra Biosciences).
Powders of reference SCD inhibitors (CAY10566, A939572 and MF-438) were resuspended and serial diluted in DMSO. […] ATP content was then measured using the CellTiter-Glo® kit (Promega) with luminescence signals measured on an EnVision multimode plate reader (Perkin Elmer).

For `Cc1nnc(-c2ccc(N3CCC(Oc4cc(F)ccc4Cl)CC3)nn2)o1` [CAY10566], the “half-maximal inhibitory concentration (IC50), SCD1 humanized strain” value [1] was “low nanomolar”, the “neurite degeneration at highest concentrations” value ([2]; 10 nM and 3 nM) was “complete rescue” and the neurite degeneration ([2]; titration, tracked every 6 h for 7 d, relative to DMSO) was “concentration-dependent decrease in neurite degeneration”. The “cellular ATP levels” value [3] was “significantly reversed alpha-synuclein-dependent decreases in ATP levels in a concentration-dependent fashion”.

Source: US20200222400A1, “METHODS FOR THE TREATMENT OF NEUROLOGICAL DISORDERS” (Yumanity Therapeutics, Inc., priority 2019, published 2020)
